This passage reports IC50 and inhibition results from ChEMBL document CHEMBL5576074, “[1,2,4]Triazolo[1,5-a]pyrimidine derivatives: Structure-activity relationship study leading to highly selective ENPP1 inhibitors” (Bioorg Med Chem Lett, 2024).

One may read the IC50 as the concentration that inhibits the measured activity by half. The low end stands for higher potency, the high end for lower potency. The term inhibition denotes the percentage by which the read-out fell short of the control.

Assay [1] concerns the target T1, Ectonucleotide pyrophosphatase/phosphodiesterase family member 1 (Homo sapiens, UniProt P22413).
T1 sequence (P22413 whole entry): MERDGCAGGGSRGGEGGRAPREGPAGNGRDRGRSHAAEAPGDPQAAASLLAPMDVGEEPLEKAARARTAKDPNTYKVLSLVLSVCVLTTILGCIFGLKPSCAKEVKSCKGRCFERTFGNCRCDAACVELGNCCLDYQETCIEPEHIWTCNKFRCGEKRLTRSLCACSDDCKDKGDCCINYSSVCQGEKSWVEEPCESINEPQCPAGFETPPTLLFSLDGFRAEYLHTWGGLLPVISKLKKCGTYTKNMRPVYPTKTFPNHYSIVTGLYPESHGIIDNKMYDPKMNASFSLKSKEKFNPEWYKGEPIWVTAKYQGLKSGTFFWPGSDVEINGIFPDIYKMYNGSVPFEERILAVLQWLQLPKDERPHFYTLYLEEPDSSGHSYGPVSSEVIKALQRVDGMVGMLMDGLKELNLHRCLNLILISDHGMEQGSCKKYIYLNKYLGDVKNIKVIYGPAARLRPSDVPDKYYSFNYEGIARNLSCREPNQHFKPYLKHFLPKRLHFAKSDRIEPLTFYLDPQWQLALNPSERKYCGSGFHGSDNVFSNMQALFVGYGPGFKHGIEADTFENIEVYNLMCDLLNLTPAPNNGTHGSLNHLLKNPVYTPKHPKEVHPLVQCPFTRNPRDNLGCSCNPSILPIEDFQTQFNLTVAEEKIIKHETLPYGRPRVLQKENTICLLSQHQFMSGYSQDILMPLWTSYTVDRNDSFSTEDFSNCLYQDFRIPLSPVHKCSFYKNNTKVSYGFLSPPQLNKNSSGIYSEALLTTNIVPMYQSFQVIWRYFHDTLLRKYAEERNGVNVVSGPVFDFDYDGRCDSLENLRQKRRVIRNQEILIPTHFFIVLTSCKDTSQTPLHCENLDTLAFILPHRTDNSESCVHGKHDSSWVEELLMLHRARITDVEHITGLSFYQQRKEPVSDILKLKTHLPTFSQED
Description: Inhibition of ENPP1 (unknown origin).

The target of assay [2] is T2, Ectonucleotide pyrophosphatase/phosphodiesterase family member 3 (Homo sapiens, UniProt O14638).
T2 sequence (O14638 whole entry): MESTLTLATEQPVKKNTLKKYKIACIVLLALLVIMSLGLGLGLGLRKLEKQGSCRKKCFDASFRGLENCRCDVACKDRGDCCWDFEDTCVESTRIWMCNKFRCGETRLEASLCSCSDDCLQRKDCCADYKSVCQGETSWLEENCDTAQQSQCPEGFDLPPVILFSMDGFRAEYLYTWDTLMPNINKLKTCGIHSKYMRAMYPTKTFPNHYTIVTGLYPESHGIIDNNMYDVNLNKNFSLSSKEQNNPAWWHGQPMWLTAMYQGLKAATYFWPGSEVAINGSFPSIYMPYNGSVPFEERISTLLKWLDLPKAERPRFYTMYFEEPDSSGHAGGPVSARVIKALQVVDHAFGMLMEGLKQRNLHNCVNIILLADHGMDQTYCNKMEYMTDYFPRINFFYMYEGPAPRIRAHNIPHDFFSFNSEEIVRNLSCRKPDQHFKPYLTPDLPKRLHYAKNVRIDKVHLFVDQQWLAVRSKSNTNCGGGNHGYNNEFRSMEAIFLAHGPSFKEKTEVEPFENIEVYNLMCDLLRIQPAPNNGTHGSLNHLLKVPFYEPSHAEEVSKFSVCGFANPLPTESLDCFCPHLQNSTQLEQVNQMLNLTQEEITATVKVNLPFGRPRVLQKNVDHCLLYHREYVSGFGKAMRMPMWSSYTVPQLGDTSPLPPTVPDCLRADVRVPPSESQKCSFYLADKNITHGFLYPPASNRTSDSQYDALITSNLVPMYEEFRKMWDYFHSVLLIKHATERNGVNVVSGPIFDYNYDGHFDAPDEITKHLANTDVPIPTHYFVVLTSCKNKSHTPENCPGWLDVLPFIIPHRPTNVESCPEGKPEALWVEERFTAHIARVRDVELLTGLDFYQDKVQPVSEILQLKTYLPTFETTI
Description: Inhibition of ENPP3 (unknown origin).

Assay [3] concerns the target T3, Autotaxin (Homo sapiens, UniProt Q13822). The assay can be described thus: Inhibition of ENPP2 (unknown origin).
The target in assay [4] is T4, Glycerophosphocholine cholinephosphodiesterase ENPP6 (Homo sapiens, UniProt Q6UWR7).
T4 sequence (Q6UWR7 whole entry): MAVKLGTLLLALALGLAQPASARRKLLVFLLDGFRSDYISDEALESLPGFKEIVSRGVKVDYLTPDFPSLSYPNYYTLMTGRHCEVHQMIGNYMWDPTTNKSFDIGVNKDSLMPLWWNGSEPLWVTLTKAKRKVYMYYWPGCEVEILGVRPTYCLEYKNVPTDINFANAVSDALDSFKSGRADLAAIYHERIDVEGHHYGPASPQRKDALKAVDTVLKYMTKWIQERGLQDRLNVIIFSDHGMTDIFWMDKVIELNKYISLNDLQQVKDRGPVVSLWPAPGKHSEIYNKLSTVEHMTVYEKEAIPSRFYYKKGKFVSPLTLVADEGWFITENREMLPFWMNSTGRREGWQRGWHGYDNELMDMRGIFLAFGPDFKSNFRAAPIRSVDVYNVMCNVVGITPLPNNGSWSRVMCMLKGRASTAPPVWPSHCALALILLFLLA
The assay can be described thus: Inhibition of ENPP6 (unknown origin).

Assay [5] concerns the target T5, Ectonucleotide pyrophosphatase/phosphodiesterase family member 3 (Homo sapiens) (UniProt O14638).
T5 sequence (whole entry): T2 sequence (O14638 whole entry)
The assay can be described thus: Inhibition of ENPP3 (unknown origin) at 50 uM relative to control.

In assay [6] the target is T3, Autotaxin. Description: Inhibition of ENPP2 (unknown origin) at 50 uM relative to control.
Assay [7] addresses T6, Glycerophosphocholine cholinephosphodiesterase ENPP6 (Homo sapiens) (UniProt Q6UWR7).
T6 sequence (whole entry): T4 sequence (Q6UWR7 whole entry)
The assay can be described thus: Inhibition of ENPP6 (unknown origin) at 50 uM relative to control.

With `Cc1nc2ncnn2c(N(C)C)c1Cc1ccc([N+](=O)[O-])cc1`, the half-maximal inhibitory concentration (IC50) in assay [1] is 21 µM; in assay [2], above 50 µM; in assay [3], above 50 µM; in assay [4], above 50 µM. Further, the results for the inhibition in assay [5], in assay [6] and in assay [7] were 2.7%, below 1% and below 1%, respectively.
Take `Cc1nc2ncnn2c(N(C)C)c1Cc1ccc(Cl)cc1`: the IC50 in assay [1] was 5.7 µM; in assay [2], above 50 µM; in assay [3], above 50 µM; in assay [4] it was above 50 µM. In addition, the inhibition in assay [5] was determined as 1.5%; in assay [6] it was 4.9%; in assay [7] it was 2%.
Regarding `Cc1nc2ncnn2c(N(C)C)c1Cc1cccc(F)c1`, the 50% inhibitory concentration (IC50) in assay [1] was 1.5 µM; in assay [2], above 50 µM; in assay [3] it was above 50 µM; in assay [4], above 50 µM. Moreover, the inhibition is 6.3% in assay [5], 14% in assay [6] and below 1% in assay [7].
For `Cc1nc2ncnn2c(NCc2ccccc2)c1Cc1cccc(N)c1`, the IC50 in assay [1] was 9 µM; in assay [2], above 50 µM; in assay [3], above 50 µM; in assay [4], above 50 µM. Besides, the results for the inhibition in assay [5], in assay [6] and in assay [7] were 11%, below 1% and below 1%, respectively.
Regarding `Cc1nc2ncnn2c(O)c1Cc1ccccc1`, the half-maximal inhibitory concentration (IC50) in assay [1] is above 30 µM; in assay [2], above 50 µM; in assay [3] it was above 50 µM; in assay [4], above 50 µM. Also, the inhibition in assay [5] was 2.4%; in assay [6] it was below 1%; in assay [7], below 1%.
Regarding `Cc1nc2ncnn2c(N(C)Cc2ccccc2)c1Cc1cccc(N)c1`, the half-inhibitory concentration (IC50) in assay [1] is above 30 µM; in assay [2], above 50 µM; in assay [3] it was above 50 µM; in assay [4] it was above 50 µM. The inhibition in assay [5], in assay [6] and in assay [7] was below 1% throughout.
In the case of `CCCNc1c(Cc2ccccc2)c(C)nc2ncnn12`, the IC50 in assay [1] is 32 µM; in assay [2], above 50 µM; in assay [3] it was above 50 µM; in assay [4], above 50 µM. Further, the inhibition in assay [5] came to 5.2%; in assay [6], 12%; in assay [7] it was 3.8%.
Turning to `COc1cccc(Cc2c(C)nc3ncnn3c2N(C)C)c1`, the IC50 is 1.6 µM in assay [1], above 50 µM in assay [2], above 50 µM in assay [3] and above 50 µM in assay [4]. Further, the inhibition in assay [5] was 6.5%; in assay [6], 31%; in assay [7], below 1%.
As to `Cc1nc2ncnn2c(NCc2cccnc2)c1Cc1cccc(N)c1`, the IC50 is 7 µM in assay [1], above 50 µM in assay [2], above 50 µM in assay [3] and above 50 µM in assay [4]. The inhibition in assay [5] is 12%; in assay [6] it was below 1%; in assay [7], below 1%.
Take `Cc1nc2ncnn2c(NCCCCC(=O)O)c1Cc1cccc(N)c1`: the 50% inhibitory concentration (IC50) in assay [1] is 3.6 µM; in assay [2] it was above 50 µM; in assay [3] it was above 50 µM; in assay [4] it was above 50 µM. Further, the inhibition in assay [5] turned out to be 22%; in assay [6], 27%; in assay [7], 3.5%.
For the compound `CNc1c(Cc2ccccc2)c(C)nc2ncnn12`, the half-inhibitory concentration (IC50) in assay [1] was above 30 µM; in assay [2] it was above 50 µM; in assay [3] it was above 50 µM; in assay [4], above 50 µM. Further, the inhibition was 10% in assay [5], below 1% in assay [6] and below 1% in assay [7].
On to `Cc1nc2ncnn2c(N(C)C)c1CCc1ccccc1`, for which the half-inhibitory concentration (IC50) in assay [1] was 23 µM; in assay [2], above 50 µM; in assay [3] it was above 50 µM; in assay [4], above 50 µM. The figures for the inhibition in assay [5], in assay [6] and in assay [7] were 3.6%, below 1% and below 1%, respectively.
